Reference: US4358602A, “Ebelactones and production thereof” (Zaidan Hojin Biseibutsu Kagaku Kenkyu Kao, priority 1980, dated 1982)
Converted amounts (≈) assume the structure as drawn.

How the values were obtained:
[1] = system: Wister rats, carragheenin-induced footpad swelling; assay: Suppression of rat footpad swelling caused by carragheenin; assay type: in vivo
Method: Tests were made to estimate the suppressive effect of ebelactone and esterastin (U.S. Pat. Nos. 4,189,438 and 4,242,453) on the swelling of rat footpad caused by injection of carragheenin when the test compounds were administered orally and intraperitoneally to the test animal, Wister rats (male, body weight:140 to 150 g). The test compound was dissolved in about 0.5 ml of ethanol with addition of one drop of a non-ionic surface-active agent "Tween" 80, and the test compound solution in ethanol was diluted with an aqueous gum arabi to prepare an aqueous suspension containing the test dose of ebelactone or esterastin. The test sample suspension so prepared was then administered orally or intraperitoneally to the rats. One hour later, 1% aqueous carragheenin was injected subcutaneously to the footpad to bring about inflammation. After the injection of carragheenin, the volume of the footpad was measured twice, namely at the end of 3 hours and at the end of 5 hours from the carragheenin injection. For control test, the ebelactone or esterastin was omitted in the above test. Degree (%) of suppression of swelling was calculated from the measured volumes of the inflammated footpad.

[2] = biological target: esterase preparation obtained from pig liver; assay: Anti-esterase activity assay (modified Huggins and Lapides method); assay type: biochemical; conditions: substrate p-nitrophenyl acetate, pH 7.0, room temperature, 20 minutes
Method: Firstly, assay of ebelactone for its anti-esterase activity can be made by determining the potency to inhibit esterase according to a modification of the method of C. […] Thus, a commercially available esterase preparation obtained from pig liver (a product of Sigma Co., U.S.A.) is diluted with water to a 1000 folds volume, and the resulting esterase solution (0.025 ml) is admixed with 1 ml of 0.1 M phosphate buffered solution (pH 7.0) containing 0.06% "Triton X-100" (a trade name of an emulsifier consisting of a polyethyleneglycol alkylphenylether, a product of Rohm & Haas Co., U.S.A.) and 0.95 ml of water containing an ebelactone sample to be assayed, and the resulting mixed solution (1.975 ml) is admixed with 0.025 ml of a solution of 40 mM p-nitrophenyl acetate (the substrate) in methanol to start the reaction of p-nitrophenyl acetate with the esterase. After the enzymatic reaction is effected at room temperature for 20 minutes, absorbance (a) at 400 nm of the resulting reaction solution is measured. On the other hand, absorbance (b) at 400 nm of a control reaction solution containing no ebelactone is measured in the same way as above. Percent of inhibition to esterase is calculated according to the following equation:
Inhibition (%)=(b-a)/b×100

[3] = biological target: T1, formylmethionine aminopeptidase prepared from rat liver (Rattus norvegicus, UniProt P13676); assay: Anti-formylmethionine aminopeptidase activity assay; assay type: biochemical; conditions: rat liver enzyme, substrate N-formylmethionine β-naphthylamide, pH 7.8, 37° C., 25 minutes; read-out: ID50, dose giving 50% inhibition to formylmethionine aminopeptidase (converted)
T1 construct: Formylmethionineaminopeptidase employed is that prepared from rat liver; from tissue; host or cells: rat liver
T1 sequence (P13676 1-732): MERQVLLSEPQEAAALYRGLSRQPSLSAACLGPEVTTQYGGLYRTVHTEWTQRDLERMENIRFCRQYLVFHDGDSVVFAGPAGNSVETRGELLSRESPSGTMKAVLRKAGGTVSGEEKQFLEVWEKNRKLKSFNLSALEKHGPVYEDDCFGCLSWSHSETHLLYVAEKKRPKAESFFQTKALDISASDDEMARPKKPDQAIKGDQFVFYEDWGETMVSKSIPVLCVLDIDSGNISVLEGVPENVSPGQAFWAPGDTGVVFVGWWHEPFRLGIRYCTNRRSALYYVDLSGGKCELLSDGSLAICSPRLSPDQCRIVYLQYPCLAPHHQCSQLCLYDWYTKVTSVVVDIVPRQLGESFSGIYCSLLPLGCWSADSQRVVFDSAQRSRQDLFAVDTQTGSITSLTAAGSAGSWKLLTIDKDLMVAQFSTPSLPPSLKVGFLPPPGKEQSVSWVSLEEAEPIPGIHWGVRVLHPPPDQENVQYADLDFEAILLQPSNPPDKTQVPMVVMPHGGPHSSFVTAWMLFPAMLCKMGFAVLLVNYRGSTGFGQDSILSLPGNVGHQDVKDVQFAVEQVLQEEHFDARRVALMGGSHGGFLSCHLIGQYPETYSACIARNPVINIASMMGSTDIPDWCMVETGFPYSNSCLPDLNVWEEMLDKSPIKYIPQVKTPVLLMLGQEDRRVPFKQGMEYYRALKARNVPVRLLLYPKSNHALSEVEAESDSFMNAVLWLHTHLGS
Method: Further, assay of ebelactone for its anti-formylmethionineaminopeptidase can be made according to the following method. Thus, as the substrate solution is employed a solution of N-formylmethionine β-naphthylamide(as the substrate) in methanol containing 5% (w/v) of "Tween" 20 (a trade name of a non-ionic surface-active agent, a product of Atlas Powder Co., U.S.A.). Formylmethionineaminopeptidase employed is that prepared from rat liver. The substrate solution (0.005 ml), 0.5 ml of 0.1 M Tris-hydrochloric acid buffered solution (pH 7.8) and 0.495 ml of water containing an ebelactone sample to be assayed are mixed together to a total volume of […]. The reaction solution so obtained is further admixed with 0.05 ml of the enzyme solution, followed by effecting the enzymatic reaction at 37° C. for 25 minutes. […] After allowing to stand at ambient temperature for 15 minutes, absorbance (a) at 525 nm of the reaction solution is measured. On the other hand, adsorbance (b) at 525 nm of a control reaction solution obtained from the blank test is measured. Percent of inhibition to the formylmethionine aminopeptidase is calculated in a similar way to the above-mentioned method for determination of the potency for inhibition to esterase.

[4] = system: CDF1 mice immunized with sheep red blood cells (SRBC); assay: Delayed Type Hypersensitivity (D.T.H.) response to SRBC in mice (cell-mediated immunity); assay type: in vivo; conditions: 24 hours after eliciting injection
[5] = intraperitoneal, 30 mg/kg, 3 Hours after carragheenin
[6] = intraperitoneal, 30 mg/kg, 5 Hours after carragheenin
[7] = oral, 50 mg/kg, 3 Hours after carragheenin
[8] = oral, 50 mg/kg, 5 Hours after carragheenin
[9] = intraperitoneal, all dosages and all times, except 5 hours with 5 mg/kg and 3 hours with 10 mg/kg of ebelactone B

Row | Structure (SMILES) | Degree (%) of suppression of inflammation [1, 5] [%] | Degree (%) of suppression of inflammation [1, 6] [%] | Degree (%) of suppression of swelling [1, 7] [%] | Degree (%) of suppression of swelling [1, 8] [%] | ID50, dose giving 50% inhibition to esterase [2] [µg/mL] | IC50 [3] [nM] | Foodpad thickness ([4]; 0.5 mg/kg oral, control 8.1) [× 0.1 mm] | reduction in the degree of swelling as compared to the control test group [1, 9] | further results
1 | CCCCCC=CCC=CCC(CC1OC(=O)C1CCCCCC)OC(=O)C(CC(N)=O)NC(C)=O (stereo not drawn) [Esterastin, esterastin, reference compound] | 31.1 | 28.1 | 10.3 | -3.0 | – | – | – | – | –
2 | CCC(C)C(O)C(C)C(=O)C(C)C=C(C)CC(C)C1OC(=O)C1CC (stereo not drawn) [Ebelactone B, ebelactone B] | 50.6 | 20.9 | 11.6 | 7.8 | 0.00035 (≈ 0.000993 µM) | 56.7 | 14.1 | significant reduction in the degree of swelling | Foodpad thickness ([4]; 0.781 mg/kg intraperitoneal at immunization, control 7.4): 14.2 × 0.1 mm; Foodpad thickness ([4]; 3.125 mg/kg intraperitoneal at immunization, control 7.4): 13.6 × 0.1 mm; Foodpad thickness ([4]; 12.5 mg/kg intraperitoneal at immunization, control 7.4): 13.3 × 0.1 mm; Foodpad thickness ([4]; 50 mg/kg intraperitoneal at immunization, control 7.4): 12.2 × 0.1 mm; Degree (%) of suppression of inflammation ([1]; intraperitoneal, 5 mg/kg, 3 Hours after carragheenin): 17.1%; Degree (%) of suppression of inflammation ([1]; intraperitoneal, 5 mg/kg, 5 Hours after carragheenin): 8.8%; Degree (%) of suppression of inflammation ([1]; intraperitoneal, 10 mg/kg, 3 Hours after carragheenin): 9.1%; Degree (%) of suppression of inflammation ([1]; intraperitoneal, 10 mg/kg, 5 Hours after carragheenin): 10.0%; Degree (%) of suppression of swelling ([1]; oral, 10 mg/kg, 3 Hours after carragheenin): 11.2%; Degree (%) of suppression of swelling ([1]; oral, 10 mg/kg, 5 Hours after carragheenin): 8.2%; reduction in the degree of swelling as compared to the control test group ([1]; oral, 10 mg/kg, at 3 hours and 5 hours from carragheenin injection): significant reduction in the degree of swelling; reduction in the degree of swelling as compared to the control test group ([1]; oral, 50 mg/kg, at 3 hours from carragheenin injection): significant reduction in the degree of swelling; Degree (%) of suppression of swelling ([1]; oral, 100 mg/kg, 3 Hours after carragheenin): 7.0%; Degree (%) of suppression of swelling ([1]; oral, 100 mg/kg, 5 Hours after carragheenin): 9.6%; reduction in the degree of swelling as compared to the control test group ([1]; oral, 100 mg/kg, at 5 hours from carragheenin injection): significant reduction in the degree of swelling
3 | CCC(C)C(O)C(C)C(=O)C(C)C=C(C)CC(C)C1OC(=O)C1C (stereo not drawn) [Ebelactone A, ebelactone A] | 45.9 | 18.5 | – | – | 0.056 (≈ 0.165 µM) | 236 | 12.2 | significant reduction in the degree of swelling | –
